How the values were obtained:
[1] = tested on: neuronal uptake of noradrenaline into slices of cerebral cortex; test: inhibition of noradrenaline uptake in brain slices; assay type: biochemical, rat; conditions: for inhibition of noradrenaline uptake (in words): rat brain slices; for Potency Ratio (imipramine = 1.0) Noradrenaline: rat cerebral cortex slices, H^3 noradrenaline
Protocol: (§1) The compounds of formula I were tested for the ability to inhibit noradrenaline and 5-hydroxytryptamine uptake in brain slices in the following standard test:
Concentration-response curves are obtained both for the test compound and for the standard agent, imipramine. The potency of each test compound is expressed in proportion to that of imipramine. Thus, [formula]

[2] = tested on: uptake of 5-hydroxytryptamine; test: inhibition of 5-hydroxytryptamine uptake in brain slices; assay type: biochemical, rat; design: key: Compounds not achieving 50% inhibition are considered inactive; conditions: for inhibition of 5-HT (hydroxytryptamine) uptake (in words): rat brain slices; for Potency Ratio (imipramine = 1.0) 5-hydroxytryptamine: rat cerebral cortex slices, H^3 5-hydroxytryptamine
Protocol: as §1
The effects of test compounds on the neuronal uptake of noradrenaline into slices of cerebral cortex prepared from rat brain is determined according to the method described by Snyder, Green and Hendley, Kinetics of H^3 --norepinephrine accumulation into slices from different regions of the rat brain (J.Pharm. exp. Therap. 164: 90-102) (1968). The effects of test compounds on the uptake of 5-hydroxytryptamine is obtained in a similar manner except that H^3 5-hydroxytryptamine is used in place of H^3 noradrenaline. Concentration-response curves are obtained both for the test compound and for the standard agent, imipramine. The potency of each test compound is expressed in proportion to that of imipramine. Thus, [formula]

[3] = tested on: p-chloroamphetamine induced hyperactivity; test: inhibition of p-chloroamphetamine (pCA) induced hyperactivity; assay type: in vivo; conditions: female mice; 50 mg/kg po; 20 mg/kg pCA ip 30 min later; activity 10-30 min post pCA
Protocol: Compounds of formula I were also tested for their ability to inhibit p-chloroamphetamine induced hyperactivity. The following procedure was used:
Three groups of 4 female mice (20-24 g) received the test compounds (50 mg/kg po) and a fourth group the requisite volume of vehicle. Thirty minutes later all the animals are given 20 mg/kg p-chloroamphetamine (pCA) ip. The grouped mice are placed immediately in square plastic cages in activity monitors and their motor activity recorded over the period 10-30 minutes post pCA. This procedure is repeated three more times so that four groups of mice are used per treatment and each activity monitor is used with all treatments in turn. The inhibition of pCA induced hyperactivity is calculated thus: [formula] where C=mean activity of control groups 10-30 minutes post pCA.
T=mean activity of treated groups 10-30 minutes post pCA.
This test is used as an in vivo screen for detection of 5-hydroxytryptamineuptake inhibitors.
Compounds giving >50% inhibition are considered of special interest. In such a test the following compounds were particularly active: […]

Structure (SMILES)	inhibition of noradrenaline uptake (in words) [1]	Potency Ratio (imipramine = 1.0) Noradrenaline [1]	inhibition of 5-HT (hydroxytryptamine) uptake (in words) [2]	Potency Ratio (imipramine = 1.0) 5-hydroxytryptamine [2]	% Inhibition of pCA induced hyperactivity [3] [%]
O=C1c2ccccc2C(=O)N1C1CCN(Cc2ccccc2)CC1 [B, 2-(1-benzylpiperid-4-yl)-1H-isoindol-1,3-(2H)-dione, reference compound]	inactive	inactive	inactive	inactive	
O=C1c2ccccc2S(=O)(=O)N1C1CCN(Cc2c[nH]c3ccccc23)CC1 [Example 3, 2-(1-[Indol-3-ylmethyl]piperid-4-yl)-1,2-benzisothiazolin-3-one-1,1-dioxide]					56
O=C1c2ccc(Cl)cc2C(=O)N1C1CCN(CCc2c[nH]c3ccccc23)CC1 [Example 8, 5-Chloro-2-(1-[2-(indol-3-yl)ethyl]piperid-4-yl)-1H-isoindole-1,3-(2H)-dione]					94
O=C1c2ccc(Cl)cc2C(=O)N1C1CCN(Cc2c[nH]c3ccccc23)CC1 [Example 16, 5-Chloro-2-[1-(indol-3-ylmethyl)piperid-4-yl]-1H-isoindole-1,3-(2H)-dione]					63
O=C1c2ccccc2C(=O)N1C1CCN(Cc2c[nH]c3ccccc23)CC1 [I, 2-(1-[Indol-3-ylmethyl]piperid-4-yl)-1H-isoindole-1,3-(2H)-dione]	very weak inhibitors	0.01	potent inhibitors	9.5	53
O=C1c2ccccc2C(=O)N1C1CCN(CCc2c[nH]c3ccccc23)CC1 [II, 2-(1-[2-(Indol-3-yl)ethyl]piperid-4-yl)-1H-isoindol-1,3-(2H)-dione]	very weak inhibitors	0.06	potent inhibitors	8.3	
Nc1ccc2c(c1)C(=O)N(C1CCN(CCc3c[nH]c4ccccc34)CC1)C2=O [III, 5-amino-2-(1-[2-(indol-3-yl)ethyl]piperid-4-yl)-1H-isoindole-1,3-(2H)-dione]	very weak inhibitors	inactive	potent inhibitors	11.0	

Source: patent US4291042A, “Antidepressant piperidine derivatives” (John Wyeth & Brother Limited, priority 1979, dated 1981)
